Measured values taken from patent US7282515B2, “Derivatives of azaspiro compounds for the treatment of pain” (Schwarz Pharma AG, priority 2002, dated 2007).

Columns and labels:
NMRI mice = test: formalin test (in-vivo test for analgesic effectiveness); parameters: key to Mean deviation of the pain reaction compared to control (%) 30–35′ after administration of formalin / Mean deviation of the pain reaction compared to control (%) 20–25′ after administration of formalin: (+): Intensified pain reaction
Method: (§1) In each case, the maximum dosage selected for the concentration of azaspiro compounds was held, by a factor of about 2, below the toxic dose previously determined in the IRWIN test (Irwin, Psychopharmacologia 13 (1968) 222).
A reduction in the pain reaction is expressed in negative percentage figures.
1. In-vivo Test for Determining the Analgesic Effectiveness of the Azaspiro Compounds
The test was conducted as described by Wheeler-Aceto (Psychopharmacology 104, 1991, 35).
NMRI mice having a weight of 20-25 g were kept under controlled conditions (22±2° C., 40-70% relative humidity). 25 μl of a 5% formocarbonyl solution was injected in the hind leg and the leg-licking frequency was then clocked for 5 minutes each at defined intervals (20, 30, 40 minutes).
Next, for the formalin test, the test substances were dissolved in a physiological salt solution with 0.5% sodium carboxymethyl cellulose and were each measured in 1-3 dosages that had been applied intraperitoneally 10 minutes before administration of formalin. The comparative reference value was provided by a control excipient (10 ml/kg).
The test was performed in blind fashion on 10 mice per test series. The evaluation was based on a comparison of the treated animals with control excipients at three different times. […] Accordingly, an average 50% reduction of the pain reaction for the treated animals is obtained when in a defined period (e.g. 30-35′ after the formalin injection) the leg-licking duration (averaged over the 10 test animals) is reduced by 50% compared to the untreated animals. The statistical significance was determined using the Mann-Whitney U-test.

[1] = IRWIN test (toxic dose / maximally tolerable dosage); type: in vivo
Method: as §1, with “FIG. 1 and Table 1 show the reaction of test animals 20-45 minutes after the intraperitoneal administration of selected compounds. In” for “In”
First, the highest possible non-toxic concentration of the respective test substances that could be used was determined by an IRWIN test (Irwin, Psychopharmacologia 13, 1968, 222).

[2] = 8 mg/kg i.p., Test series 1 (n = 10)
[3] = 8 mg/kg i.p., Test series 2 (n = 10)
[4] = 16 mg/kg i.p., Test series 1 (n = 10)
[5] = 16 mg/kg i.p., Test series 2 (n = 10)
[6] = 32 mg/kg i.p., Test series 1 (n = 10)
[7] = 32 mg/kg i.p., Test series 2 (n = 10)
[8] = 4 mg/kg i.p., Test series 2 (n = 10)
[9] = 64 mg/kg i.p., Test series 1 (n = 10)
[10] = 64 mg/kg i.p., Test series 2 (n = 10)
[11] = 32 mg/kg i.p., (n = 10), no test series named

| SMILES | Mean deviation of the pain reaction compared to control (%) 20–25′ after administration of formalin (NMRI mice; [4]) | Mean deviation of the pain reaction compared to control (%) 30–35′ after administration of formalin (NMRI mice; [4]) | Mean deviation of the pain reaction compared to control (%) 20–25′ after administration of formalin (NMRI mice; [5]) | Mean deviation of the pain reaction compared to control (%) 30–35′ after administration of formalin (NMRI mice; [5]) | Mean deviation of the pain reaction compared to control (%) 40–45′ after administration of formalin (NMRI mice; [5]) | Mean deviation of the pain reaction compared to control (%) 20–25′ after administration of formalin (NMRI mice; [6]) | Mean deviation of the pain reaction compared to control (%) 30–35′ after administration of formalin (NMRI mice; [6]) | Mean deviation of the pain reaction compared to control (%) 40–45′ after administration of formalin (NMRI mice; [4]) | Mean deviation of the pain reaction compared to control (%) 40–45′ after administration of formalin (NMRI mice; [6]) | Mean deviation of the pain reaction compared to control (%) 20–25′ after administration of formalin (NMRI mice; [9]) | Mean deviation of the pain reaction compared to control (%) 30–35′ after administration of formalin (NMRI mice; [9]) | Mean deviation of the pain reaction compared to control (%) 40–45′ after administration of formalin (NMRI mice; [9]) | further results |
| --- | --- | --- | --- | --- | --- | --- | --- | --- | --- | --- | --- | --- | --- |
| O=C1CC2(CCCCC2)CN1 [GPL, 2-azaspiro[4.5]decan-3-on, reference compound] | (+) | (+) | −74% | −40% | −41% | (+) | −10% | – | – | – | – | – | Mean deviation of the pain reaction compared to control (%) 20–25′ after administration of formalin (NMRI mice; [2]): (+); Mean deviation of the pain reaction compared to control (%) 30–35′ after administration of formalin (NMRI mice; [2]): (+); Mean deviation of the pain reaction compared to control (%) 20–25′ after administration of formalin (NMRI mice; [3]): −58%; Mean deviation of the pain reaction compared to control (%) 30–35′ after administration of formalin (NMRI mice; [3]): −18%; Mean deviation of the pain reaction compared to control (%) 40–45′ after administration of formalin (NMRI mice; [3]): −15%; Mean deviation of the pain reaction compared to control (%) 20–25′ after administration of formalin (NMRI mice; [7]): −64%; Mean deviation of the pain reaction compared to control (%) 30–35′ after administration of formalin (NMRI mice; [7]): −15%; Mean deviation of the pain reaction compared to control (%) 40–45′ after administration of formalin (NMRI mice; [7]): −46%; side effects above the maximally tolerable dosages (sedation, tremor, hypothermia) [1]: significant lethality rate |
| O=C1NC(=O)C2(CCCCC2)N1 [SPM 10011, 1,3-diazaspiro[4.5]decane-2,4-dion] | −75% | −11% | −84% | −21% | −34% | −82% | −64% | −55% | −64% | −100% | −100% | −80% | Mean deviation of the pain reaction compared to control (%) 20–25′ after administration of formalin (NMRI mice; [8]): −62%; Mean deviation of the pain reaction compared to control (%) 30–35′ after administration of formalin (NMRI mice; [8]): (+); Mean deviation of the pain reaction compared to control (%) 20–25′ after administration of formalin (NMRI mice; [10]): −100%; Mean deviation of the pain reaction compared to control (%) 30–35′ after administration of formalin (NMRI mice; [10]): −100%; Mean deviation of the pain reaction compared to control (%) 40–45′ after administration of formalin (NMRI mice; [10]): −97% |
| S=C1NC(=S)C2(CCCCC2)N1 [SPM 10013, 1,3-diazaspiro[4.5]decane-2,4-dithion] | −60% | −14% | – | – | – | −82% | −60% | −49% | −30% | −98% | −95% | −78% | – |
| O=C1NCC2(CCCCC2)N1 [SPM 10019, 1,3-diazaspiro[4.5]decane-2-on] | – | – | – | – | – | – | – | – | – | – | – | – | Mean deviation of the pain reaction compared to control (%) 20–25′ after administration of formalin (NMRI mice; [11]): −52%; Mean deviation of the pain reaction compared to control (%) 40–45′ after administration of formalin (NMRI mice; [11]): −40% |
